The values below are quoted from earlier work in patent publication US20060201391A1, “Compositions having sustained-release insect repellency” (priority 2005, published 2006).

The subject of the series is mosquitoes, stable flies and deer ticks.

For `C[C@H]1COC(=O)[C@@H]2[C@@H]1CC[C@@H]2C` [DHN, dihydronepetalactone], the “insect repellency compared with DEET” value is listed as “substantially equivalent to DEET”.
